Measurements: US20030134774A1, “Methods for inhibiting cardiac disorders” (priority 2001, published 2003)

Assays:
AKT = experiment: Phospho-AKT and total AKT Western blot in cardiomyocytes; format: cell-based, rat; conditions: for basal AKT phosphorylation after acute treatment: PMA 100 nM, NE 10 μM
Procedure: rPMT decreases basal AKT phosphorylation and prevents its phosphorylation by EGF. Neonatal rat cardiomyocytes were treated with rPMT (400 ng/ml) for 24 hr (Panel A), 48 hr (Panel B) or with EGF (50 ng/ml) for 5 min. Cell lysates were subjected to SDS-PAGE followed by Western blotting with antibodies that recognize the phosphorylated form or total AKT. Data are from representative gels, with similar results obtained in 3 separate experiments.
Panel A: Cells were treated with norepinephrine (NE, 10 μM) or PMA (100 nM) for 5 min without or with GF109203 (5 μM).
Panel B: Cells were treated with rPMT (400 ng/ml), NE (10 μM) or PMA (100 nM) for 24 hr without or with Go6983 (5 μM). […] Cell lysates were subjected to SDS-PAGE followed by Western blotting using a specific anti-phospho-AKT antibody. Data are from representative gels, with similar results obtained in 3 separate culture preparations.
(§1) Specific immunoreactivity for individual PKC isoforms was quantified according to methods described previously. For assays of MAPKs and AKT, cells were exposed to test agents as indicated in individual experimental protocols, washed three times with ice-cold calcium/magnesium-free Dulbecco's PBS (pH 7.1), scraped into ice-cold extraction buffer [20 mM β-glycerophosphate pH 7.5, 20 mM sodium fluoride, 2 mM EDTA, 0.2 mM sodium vanadate, 10 μg/ml aprotinin, 25 μg/ml leupeptin, 50 μg/ml PMSF, and 0.3% (v/v) β-mercaptoethanol], lysed by sonication, and centrifuged at 10,000 g for 10 min at 4° C. The supernatant was diluted in SDS-PAGE sample buffer, boiled for 5 min, and stored at −70° C. Western blot analysis was performed with antibodies that are selective for the phosphorylated (activated) forms of ERK1/2, p38-MAPK, JNK, AKT, and pan-PKC according to manufacturer's instructions. For each panel in each Figure, the results are from a single gel exposed for a uniform duration. Bands were detected by enhanced chemiluminescence and blots were quantified by laser scanning densitometry.

cardiomyocytes [1] = experiment: Protein synthesis ([3H]phenylalanine incorporation) in cardiomyocytes; format: cell-based, rat; conditions: rPMT 400 ng/ml or NE 10 μM, 48 hr, serum-free
Procedure: (§2) rPMT mimics the effect of norepinephrine to promote cardiomyocyte hypertrophy. Cardiomyocytes were cultured in serum-free medium without or with rPMT (400 ng/ml) or norepinephrine (NE, 10 μM) for 48 hr. Cardiomyocytes were fixed, permeabilized, and stained with monoclonal anti-α-actinin sarcomeric (Panel A, magnification×100) or subjected to Northern blot analysis for measurements of steady-state ANF mRNA expression (Panel B). Effects of rPMT (black bars) and NE (gray bars) vs. vehicle (white bars) on sarcomeric organization (Panel C), cell size (Panel D), and protein synthesis (Panel E) are illustrated (n=3 for each).
As a second index of cardiomyocyte growth, relative rates of protein synthesis were measured as radiolabeled phenylalanine incorporation into cell protein. Cells were stimulated in serum-free medium with agonists (or vehicle as control) for 48 hr at 37° C. The medium was replaced with serum-free medium containing [^3H]phenylalanine (0.1 μCi/ml) and non-radioactive phenylalanine (0.3 mM, to minimize variations in the specific activity of the precursor pool responsible for protein synthesis) during the final 24 hr of stimulation. Cells were rinsed with PBS and incubated in 10% trichloroacetic acid for 30 min on ice. […] Aliquots of the SDS-soluble protein were counted in 5 ml of scintillant.

PKC-ε = target: T1, PKC-ε (Rattus norvegicus, UniProt P09216); experiment: Western blot with anti-phospho-PKC antibody in cardiomyocytes; format: cell-based; conditions: for PKC-ε phosphorylation/activation (phospho-PKC band pattern): NE 10 μM or PMA 100 nM for 5 min
T1 construct: PKCε is detected as a single band in quiescent cardiomyocytes; endogenous in cells; host or cells: cultured neonatal rat ventricular cardiomyocytes
T1 sequence (P09216 1-737): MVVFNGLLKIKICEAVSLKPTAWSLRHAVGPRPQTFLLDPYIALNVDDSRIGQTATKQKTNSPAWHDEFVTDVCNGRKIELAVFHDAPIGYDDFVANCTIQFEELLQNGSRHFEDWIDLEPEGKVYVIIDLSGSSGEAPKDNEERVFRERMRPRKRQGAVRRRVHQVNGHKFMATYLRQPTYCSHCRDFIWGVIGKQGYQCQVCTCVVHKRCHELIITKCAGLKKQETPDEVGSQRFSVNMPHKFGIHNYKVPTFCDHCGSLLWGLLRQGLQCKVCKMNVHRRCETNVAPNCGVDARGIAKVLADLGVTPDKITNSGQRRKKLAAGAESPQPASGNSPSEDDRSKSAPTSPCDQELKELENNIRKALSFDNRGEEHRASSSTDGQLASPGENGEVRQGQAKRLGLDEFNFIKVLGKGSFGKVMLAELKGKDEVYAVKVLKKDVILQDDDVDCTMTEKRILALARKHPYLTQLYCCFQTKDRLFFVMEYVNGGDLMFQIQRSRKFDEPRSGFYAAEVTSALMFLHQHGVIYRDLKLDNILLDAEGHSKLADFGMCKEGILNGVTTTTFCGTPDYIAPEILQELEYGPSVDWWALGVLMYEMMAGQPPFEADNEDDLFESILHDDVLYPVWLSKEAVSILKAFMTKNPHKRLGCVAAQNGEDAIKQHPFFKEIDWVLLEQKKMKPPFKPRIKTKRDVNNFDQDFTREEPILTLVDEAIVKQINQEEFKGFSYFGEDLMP
Procedure: (§3) rPMT selectively activates nPKC isoforms. Cardiomyocyte cultures were incubated in culture medium without or with NE (10 μM), rPMT (400 ng/ml) or PMA (100 nM) for 24 hr (Panels A and C) or 5 min (Panel B). Soluble extracts were prepared and separated by SDS-PAGE followed by immunodetection of total PKC isoform abundance with antibodies that are specific for the individual PKC isoforms (Panel A), or phosphorylated forms of PKC (largely PKCε) with a pan-phospho-PKC antibody (Panels B and C), as described in Methods below. GF109203 was included at 5 μM 30 min prior to stimulation as indicated.
as §1

ANF mRNA = experiment: Northern blot analysis of ANF mRNA in cardiomyocytes; format: cell-based, rat; conditions: rPMT 400 ng/ml or NE 10 μM, 48 hr, serum-free
Procedure: as §2
Total RNA from neonatal rat cardiomyocytes were isolated by using a Qiagen kit according to manufacturer's instructions. A rat ANF cDNA probe (˜600 bp) was labeled with [^32P]dCTP. 10 μ/g of total RNA was separated on a 1% agarose gel and transferred to a nylon membrane (Amersham). Prehybridization and hybridization were performed according to standard methods. Normalization of signals was performed with a glyceraldehyde-3-phosphate dehydrogenase probe. Signals were detected by Phosphorimage analysis.

PKCδ and PKCε = experiment: Immunoblot of nPKC isoform abundance in cardiomyocytes; format: cell-based, rat; conditions: 24 hr stimulation
Procedure: as §3
(§4) Cells were maintained in culture in the presence of 10% FCS for 96 hr and then switched to serum-free medium for 24 hr prior to the addition of agonists as indicated. For PKC, extracts were prepared and subjected to SDS-PAGE to resolve individual isoforms according to methods described previously (14).
(§5) Specific immunoreactivity for individual PKC isoforms was quantified according to methods described previously. […] Bands were detected by enhanced chemiluminescence and blots were quantified by laser scanning densitometry.

PKCα and PKCλ = experiment: Immunoblot of PKCα/PKCλ abundance and distribution in cardiomyocytes; format: cell-based, rat; conditions: 24 hr stimulation
Procedure: as §3, §4, §5

cardiomyocytes [2] = experiment: Cardiomyocyte growth: sarcomeric organization and cell size; format: cell-based, rat; conditions: rPMT 400 ng/ml or NE 10 μM, 48 hr, serum-free
Procedure: as §2
Cardiomyocyte growth was assessed by measuring cell surface area by digitized image analysis. For each experimental point, 7-10 frames/dish were recorded at 40× magnification with a video camera attached to a Nikon microscope which was calibrated with a micrometer.
Cardiomyocytes were grown on slides precoated with fibronectin. After treatment, cells were fixed with cold methanol and permeabilized with 0.1% Triton X-100 and 0.2% BSA. Cells were incubated with α-actinin monoclonal antibody overnight at 4° C. followed by anti-mouse IgG-Cy3-labeled antibody for 30 min at room temperature. Fluorescence microscopy images were obtained at 100× magnification.

PKC isoforms = experiment: Immunoblot of PKC isoform partitioning and down-regulation in cardiomyocytes; format: cell-based, rat; conditions: 24 hr experiments
Procedure: as §3, with “Cardiomyocyte cultures were incubated in culture medium without or with NE (10 μM), rPMT (400 ng/ml) or PMA (100 nM) for 24 hr (Panels A and C) or 5 min (Panel B).” left out
as §4, §5

JNK = experiment: Phospho-JNK Western blot in cardiomyocytes; format: cell-based, rat; conditions: rPMT 24 hr; sorbitol 5 min positive control
Procedure: (§6) rPMT promotes the activation of ERK1/2, JNK and p38-MAPK cascades. Incubations were for 24 hr in the presence of the indicated concentrations of rPMT. PMA (100 nM, 5 min) and sorbitol ([…], 5 min) were included as positive controls. Cell lysates were subjected to SDS-PAGE followed by Western blotting as described in Methods below. Phosphorylated forms of ERK1/2 (A), p38 MAP kinase (B) or JNK (C) were detected by specific anti-phospho-ERK1/2, -p38 MAP kinase or -JNK antibodies, respectively. Blots were stripped and subjected to immunoblot analysis with total ERK1/2 or p38 MAP kinase to normalize for minor variations in protein loading (Panels A and B). Top: representative autoradiograms (with each lane from a single gel exposed for the same duration). Bottom: quantification of each series of experiments (n=3).
as §5

p38-MAPK = experiment: Phospho-p38 MAP kinase Western blot in cardiomyocytes; format: cell-based, rat; conditions: rPMT 24 hr; sorbitol 5 min positive control
Procedure: as §6, §5

ERK1/2 = experiment: Phospho-ERK1/2 Western blot in cardiomyocytes; format: cell-based, rat; conditions: cardiomyocytes; for effect on ERK phosphorylation/activation by rPMT: rPMT 400 ng/ml 24 hr
Procedure: as §6
(§7) rPMT transactivation of the EGF receptor in cardiac fibroblasts, but not cardiomyocytes. Neonatal rat cardiomyocytes (Panel A) and cardiac fibroblasts (Panel B) were treated with rPMT (400 ng/ml) for 24 hr or EGF (50 ng/ml) for 5 min without or with AG1478 (2 μM, starting 30 min prior to stimulation). Cell lysates were subjected to SDS-PAGE followed by Western blotting with the anti-phospho-ERK1/2 antibody. Data are from a representative gel, with similar results obtained in 3 separate experiments.
as §1, with “The supernatant was diluted in SDS-PAGE sample buffer, boiled for 5 min, and stored at −70° C. Western blot analysis was performed with antibodies that are selective for the phosphorylated (activated) forms of ERK1/2, p38-MAPK, JNK, AKT, and pan-PKC according to manufacturer's instructions. For each panel in each Figure, the results are from a single gel exposed for a uniform duration.” left out

[3] = system: ERK1/2 in cardiac fibroblasts; experiment: Phospho-ERK1/2 Western blot in cardiac fibroblasts; format: cell-based, rat; conditions: AG1478 2 μM
Procedure: as §7
Cardiac myocytes were dissociated from the ventricles of two-day-old Wistar rats by a trypsin digestion protocol which incorporates a differential attachment procedure to enrich for cardiac myocytes, as described previously (13). For some experiments, attached cells were maintained as fibroblast cultures. For studies of inositol phosphates, MAPKs, AKT, and PKC cardiomyocytes were plated at a density of 5×10^5 cells per ml (2 ml per 35-mm dish; 1 ml per 22.1-mm dish) and were cultured in MEM supplemented with 10% fetal calf serum. […]
as §5

EGF: epidermal growth factor
AKT activation in control cultures (AKT; EGF 50 ng/ml, 5 min): robust

NC[C@H](O)c1ccc(O)c(O)c1 [NE, norepinephrine, reference compound]
[3H]phenylalanine incorporation (protein synthesis) (cardiomyocytes [1]): enhance [^3H]phenylalanine incorporation
PKC-ε phosphorylation/activation (phospho-PKC band pattern) (PKC-ε): slower mobility, more-highly phosphorylated species
basal AKT phosphorylation after acute treatment (AKT; 5 min): not
ANF mRNA expression (ANF mRNA): induce ANF mRNA expression
abundance of PKCδ and PKCε in the soluble fraction (PKCδ and PKCε): significantly reduce
abundance and subcellular distribution of PKCα and PKCλ (PKCα and PKCλ): is not altered
cell size (cellular enlargement) (cardiomyocytes [2]): induce marked cellular enlargement
myofibrillar (sarcomeric) organization (cardiomyocytes [2]): promote myofibrillar organization

COc1ccc2c(c1)c(C1=C(c3c[nH]c4ccccc34)C(=O)NC1=O)cn2CCCN(C)C [Go6983, reference compound]
effect on negative regulation of AKT by rPMT (AKT; Go6983 5 μM, 24 hr): abrogates
inhibition of PMA-dependent down-regulation of PKC isoforms (PKC isoforms): completely inhibited

OC[C@@H](O)[C@@H](O)[C@H](O)[C@@H](O)CO [sorbitol, reference compound]
magnitude of JNK activation (JNK): strong activation
magnitude of p38-MAPK activation (p38-MAPK): strong activation

CCCCCCCCCCCCCC(=O)O[C@@H]1[C@@H](C)[C@@]2(O)[C@@H](C=C(CO)C[C@]3(O)C(=O)C(C)=C[C@@H]23)[C@@H]2C(C)(C)[C@]12OC(C)=O [PMA, reference compound]
phospho-PKC immunoreactivity during pharmacologic down-regulation (PKC-ε; 24 hrs): drastically reduced
PKC-ε phosphorylation/activation (phospho-PKC band pattern) (PKC-ε): slower mobility, more-highly phosphorylated species
basal AKT phosphorylation after acute treatment (AKT; 5 min): reduce basal AKT phosphorylation
basal AKT phosphorylation after 24 hr treatment (AKT; 24 hr, relative to control cultures): reduced

CN(C)CCCn1cc(C2=C(c3c[nH]c4ccccc34)C(=O)NC2=O)c2ccccc21 [GF109203, reference compound]
effect on appearance of the more highly phosphorylated PKC-ε band induced by NE or PMA (PKC-ε; inhibitor 5 μM, 30 min prior to stimulation): prevented
effect on inhibitory modulation of AKT phosphorylation by PMA (AKT; GF109203 5 μM, 5 min PMA): prevented
effect on ERK phosphorylation/activation by rPMT (ERK1/2): markedly inhibited
inhibition of PMA-dependent down-regulation of PKC isoforms (PKC isoforms): did not

COc1cc2ncnc(Nc3cccc(Cl)c3)c2cc1OC [AG1478, reference compound]
effect on ERK activation by EGF [3]: marked effect to prevent ERK activation
effect on ERK activation by rPMT [3]: marked effect to prevent ERK activation
effect on EGF receptor-mediated ERK phosphorylation (ERK1/2; AG1478 2 μM, EGF 50 ng/ml 5 min): effectively blocks
effect on ERK phosphorylation/activation by rPMT (ERK1/2): only a very minor reduction
